Experiments:
Assay in all cases: relative viability (nuclei count vs DMSO), 5 days (fraction); higher = more cells survive
[1] = tested on: ChaGo-K-1
Summary of the method: (§1)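 Nuclei were stained with Hoechst during a one-step fixation (final 0.05% Triton X-100, 1% formaldehyde, 1 ug/ml Hoechst) carried out 5 days after dosing, then counted on 4× images. The cells, lung cancer lines in 1536-well plates, had been dosed by pin tool the day after seeding with one drug alone or a fixed anchor-drug dose plus five library-drug doses (not always all listed) in √10 steps. Relative viability is the nuclei count in treated wells divided by that in vehicle wells, and each value is the median of duplicate plates.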

[2] = tested on: EKVX
Summary of the method: as §1

[3] = tested on: EMC-BAC-2
Summary of the method: as §1

[4] = tested on: H3255
Summary of the method: as §1

[5] = tested on: HARA
Summary of the method: as §1

[6] = tested on: HCC-15
Summary of the method: as §1

[7] = tested on: HCC-827
Summary of the method: as §1

[8] = tested on: LC-2-ad
Summary of the method: as §1

[9] = tested on: LCLC-97TM1
Summary of the method: as §1

[10] = tested on: LU99A
Summary of the method: as §1

[11] = tested on: NCI-H1437
Summary of the method: as §1

[12] = tested on: NCI-H1792
Summary of the method: as §1

[13] = tested on: NCI-H1793
Summary of the method: as §1

[14] = tested on: NCI-H1915
Summary of the method: as §1

[15] = tested on: NCI-H1944
Summary of the method: as §1

[16] = tested on: NCI-H2126
Summary of the method: as §1

[17] = tested on: NCI-H23
Summary of the method: as §1

[18] = tested on: NCI-H322M
Summary of the method: as §1

[19] = tested on: NCI-H441
Summary of the method: as §1

[20] = tested on: NCI-H460
Summary of the method: as §1

[21] = tested on: NCI-H661
Summary of the method: as §1

[22] = tested on: PC-3 [JPC-3]
Summary of the method: as §1

[23] = tested on: SK-LU-1
Summary of the method: as §1

O=c1[nH]c2ccccc2n1C1CCN(CCCC(c2ccc(F)cc2)c2ccc(F)cc2)CC1 [Pimozide] + COc1cccc2cc(-c3nc([C@H]4CC[C@H](C(=O)O)CC4)n4ncnc(N)c34)[nH]c12 [OSI-027] (partner 0.5 µM)
relative viability ([1]; first compound 0.08 µM): 0.594 | relative viability ([1]; first compound 0.253 µM): 0.555 | relative viability ([1]; first compound 0.8 µM): 0.517 | relative viability ([1]; first compound 2.53 µM): 0.531 | relative viability ([1]; first compound 8 µM): 0.485 | relative viability ([2]; first compound 0.08 µM): 0.548 | relative viability ([2]; first compound 0.253 µM): 0.733 | relative viability ([2]; first compound 0.8 µM): 0.668 | relative viability ([2]; first compound 2.53 µM): 0.637 | relative viability ([2]; first compound 8 µM): 0.647 | relative viability ([3]; first compound 0.08 µM): 0.353 | relative viability ([3]; first compound 0.253 µM): 0.337 | relative viability ([3]; first compound 0.8 µM): 0.342 | relative viability ([3]; first compound 2.53 µM): 0.338 | relative viability ([3]; first compound 8 µM): 0.391 | relative viability ([4]; first compound 0.253 µM): 0.514 | relative viability ([4]; first compound 0.8 µM): 0.563 | relative viability ([4]; first compound 2.53 µM): 0.6 | relative viability ([4]; first compound 8 µM): 0.584 | relative viability ([5]; first compound 0.253 µM): 0.518 | relative viability ([5]; first compound 0.8 µM): 0.196 | relative viability ([5]; first compound 2.53 µM): 0.384 | relative viability ([5]; first compound 8 µM): 0.264 | relative viability ([6]; first compound 0.08 µM): 0.817 | relative viability ([6]; first compound 0.253 µM): 0.668 | relative viability ([6]; first compound 0.8 µM): 0.472 | relative viability ([6]; first compound 2.53 µM): 0.618 | relative viability ([6]; first compound 8 µM): 0.573 | relative viability ([7]; first compound 0.253 µM): 0.801 | relative viability ([7]; first compound 0.8 µM): 0.738 | relative viability ([7]; first compound 2.53 µM): 0.782 | relative viability ([7]; first compound 8 µM): 0.769 | relative viability ([8]; first compound 0.08 µM): 0.694 | relative viability ([8]; first compound 0.253 µM): 0.875 | relative viability ([8]; first compound 0.8 µM): 0.735 | relative viability ([8]; first compound 2.53 µM): 0.681 | relative viability ([8]; first compound 8 µM): 0.635 | relative viability ([9]; first compound 0.08 µM): 0.488 | relative viability ([9]; first compound 0.253 µM): 0.363 | relative viability ([9]; first compound 0.8 µM): 0.447 | relative viability ([9]; first compound 2.53 µM): 0.422 | relative viability ([9]; first compound 8 µM): 0.278 | relative viability ([10]; first compound 0.08 µM): 0.277 | relative viability ([10]; first compound 0.253 µM): 0.277 | relative viability ([10]; first compound 0.8 µM): 0.228 | relative viability ([10]; first compound 2.53 µM): 0.302 | relative viability ([10]; first compound 8 µM): 0.291 | relative viability ([11]; first compound 0.08 µM): 0.93 | relative viability ([11]; first compound 0.253 µM): 0.888 | relative viability ([11]; first compound 0.8 µM): 0.883 | relative viability ([11]; first compound 2.53 µM): 0.89 | relative viability ([11]; first compound 8 µM): 0.676 | relative viability ([12]; first compound 0.08 µM): 0.758 | relative viability ([12]; first compound 0.253 µM): 0.691 | relative viability ([12]; first compound 0.8 µM): 0.666 | relative viability ([12]; first compound 2.53 µM): 0.663 | relative viability ([12]; first compound 8 µM): 0.736 | relative viability ([13]; first compound 0.253 µM): 0.239 | relative viability ([13]; first compound 0.8 µM): 0.205 | relative viability ([13]; first compound 2.53 µM): 0.245 | relative viability ([13]; first compound 8 µM): 0.115 | relative viability ([14]; first compound 0.08 µM): 0.6 | relative viability ([14]; first compound 0.253 µM): 0.575 | relative viability ([14]; first compound 0.8 µM): 0.384 | relative viability ([14]; first compound 2.53 µM): 0.581 | relative viability ([14]; first compound 8 µM): 0.478 | relative viability ([15]; first compound 0.08 µM): 0.347 | relative viability ([15]; first compound 0.253 µM): 0.417 | relative viability ([15]; first compound 0.8 µM): 0.33 | relative viability ([15]; first compound 2.53 µM): 0.389 | relative viability ([15]; first compound 8 µM): 0.37 | relative viability ([16]; first compound 0.08 µM): 0.711 | relative viability ([16]; first compound 0.253 µM): 0.63 | relative viability ([16]; first compound 0.8 µM): 0.755 | relative viability ([16]; first compound 2.53 µM): 0.712 | relative viability ([16]; first compound 8 µM): 0.744 | relative viability ([17]; first compound 0.08 µM): 0.696 | relative viability ([17]; first compound 0.253 µM): 0.603 | relative viability ([17]; first compound 0.8 µM): 0.379 | relative viability ([17]; first compound 2.53 µM): 0.443 | relative viability ([17]; first compound 8 µM): 0.477 | relative viability ([18]; first compound 0.253 µM): 0.525 | relative viability ([18]; first compound 0.8 µM): 0.508 | relative viability ([18]; first compound 2.53 µM): 0.545 | relative viability ([18]; first compound 8 µM): 0.572 | relative viability ([19]; first compound 0.08 µM): 0.608 | relative viability ([19]; first compound 0.253 µM): 0.577 | relative viability ([19]; first compound 0.8 µM): 0.478 | relative viability ([19]; first compound 2.53 µM): 0.436 | relative viability ([19]; first compound 8 µM): 0.406 | relative viability ([20]; first compound 0.08 µM): 0.755 | relative viability ([20]; first compound 0.253 µM): 0.66 | relative viability ([20]; first compound 0.8 µM): 0.708 | relative viability ([20]; first compound 2.53 µM): 0.518 | relative viability ([20]; first compound 8 µM): 0.484 | relative viability ([21]; first compound 0.08 µM): 0.691 | relative viability ([21]; first compound 0.253 µM): 0.647 | relative viability ([21]; first compound 0.8 µM): 0.624 | relative viability ([21]; first compound 2.53 µM): 0.533 | relative viability ([21]; first compound 8 µM): 0.538 | relative viability ([22]; first compound 0.08 µM): 0.338 | relative viability ([22]; first compound 0.253 µM): 0.739 | relative viability ([22]; first compound 0.8 µM): 0.688 | relative viability ([22]; first compound 2.53 µM): 0.746 | relative viability ([22]; first compound 8 µM): 0.685 | relative viability ([23]; first compound 0.08 µM): 0.417 | relative viability ([23]; first compound 0.253 µM): 0.331 | relative viability ([23]; first compound 0.8 µM): 0.285 | relative viability ([23]; first compound 2.53 µM): 0.231 | relative viability ([23]; first compound 8 µM): 0.201

— the supplement of paper PMC10307832
